Measurements taken from patent US7183319B2 (priority 2000, dated 2007).
Entries after “also recorded” stand apart in the source; their conditions may differ.

Columns and labels:
mushroom tyrosinase = assay type: biochemical; conditions: for oxidation rate (Rmax) by tyrosinase: pH 7.4
[1] = bovine
in vitro = conditions: bovine, serum

Compound: O=C(NCCSc1ccc(O)cc1)Oc1ccc(N(CCCl)CCCl)cc1 [prodrug 22]
- oxidation rate (Rmax) by tyrosinase (mushroom tyrosinase): 7.5 nmol/min

Compound: O=C(NCCc1ccc(O)c(O)c1)Oc1ccc(N(CCCl)CCCl)cc1 [prodrug 10, {2′-(3″,4″-Dihydroxyphenyl)-ethyl} carbamic acid p-(bis-2-chloroethylamino) phenyl ester]
- quality as tyrosinase substrate / oxidation rate in words (mushroom tyrosinase): good substrates

Compound: O=C(NCCc1ccc(O)cc1)Oc1ccc(N(CCCl)CCCl)cc1 [prodrug 9, {2′-(4″-Hydroxyphenyl)ethyl} carbamic acid p-(bis-2-chloroethylamino)phenyl ster]
- quality as tyrosinase substrate / oxidation rate in words (mushroom tyrosinase): good substrates

Compound: COC(=O)[C@@H](Cc1ccc(O)c(O)c1)NC(=O)Oc1ccc(N(CCCl)CCCl)cc1 [prodrug 16, (R)-[1′-Amino-2′-(3,4′-hydroxyphenyl)ethanonic acid methyl ester]-carbamic acid p-(bis-2-chloroethylamino) phenyl ester]
- oxidation by tyrosinase within incubation period (mushroom tyrosinase): not oxidized by tryorinase; also recorded: not oxidised by tyrosinase

Compound: O=C(NCCc1ccc(O)cc1)Oc1ccc(N(CCCl)CCCl)cc1 [1.1.1]
- % decomposition over time, 1 hr [1]: 7%
- % decomposition over time, 2 hrs [1]: 44%
- % decomposition over time, 3 hrs [1]: 61%
- % decomposition over time, 4 hrs [1]: 74%
- % decomposition over time, 6 hrs [1]: 100%
- half-life (in vitro): ~2.5 h

Compound: COc1cccc2c1C(=O)c1c(O)c3c(c(O)c1C2=O)C[C@@](O)(C(C)=O)C[C@@H]3OC1CC(NC(=O)NCCc2ccc(O)cc2)C(O)C(C)O1 (stereo partly drawn) [1.1.5]
- quality as tyrosinase substrate / oxidation rate in words (mushroom tyrosinase): poor substrate
- % decomposition over time, 1 hr [1]: 0%
- % decomposition over time, 2 hrs [1]: 0%
- % decomposition over time, 3 hrs [1]: 0%
- % decomposition over time, 4 hrs [1]: 0%
- % decomposition over time, 6 hrs [1]: 0%
- % decomposition over time, 12 hrs [1]: 0%
- % decomposition over time, 24 hrs [1]: 0%
- % decomposition over time, 48 hrs [1]: 0%

Compound: COC(=O)[C@H](Cc1ccc(O)cc1)NC(=S)Oc1ccc(N(CCCl)CCCl)cc1 [2.2.1]
- % decomposition over time, 1 hr [1]: 52%
- % decomposition over time, 2 hrs [1]: 92%
- % decomposition over time, 3 hrs [1]: 100%
- half-life (in vitro): ~1.5 h

Compound: O=C(NCCc1ccc(O)cc1)Oc1ccc(N(CCCl)CCCl)cc1 [prodrug 21, {2′-(4″-Hydroxyphenyl)ethylamine) carbamic acid p-(bis-2-chloroethylamino) phenyl ester]
- oxidation rate (Rmax) by tyrosinase (mushroom tyrosinase): 7.5 nmol/min
